PubChem BioAssay (NCI)
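GI50 is the concentration that inhibits growth by half. TGI: total growth inhibition.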

How the values were obtained:
Test in all cases: NCI tumour cell line growth inhibition, 384-well format
[1] = tested on: U251 glioblastoma
[2] = tested on: HCT-15 colon
[3] = tested on: NCI-H522 lung
[4] = tested on: SW-620 colon
[5] = tested on: A498 renal
[6] = tested on: UACC-257 melanoma
[7] = tested on: UACC-62 melanoma
[8] = tested on: COLO 205 colon
[9] = tested on: HL-60(TB) leukemia
[10] = tested on: NCI-H226 lung
[11] = tested on: HOP-62 NSCLC
[12] = tested on: OVCAR-5 ovarian
[13] = tested on: SK-MEL-2 melanoma
[14] = tested on: SK-OV-3 ovarian
[15] = tested on: OVCAR-3 ovarian
[16] = tested on: PC-3 prostate
[17] = tested on: SK-MEL-5 melanoma
[18] = tested on: K-562 leukemia
[19] = tested on: SF-539 CNS
[20] = tested on: DU-145 prostate
[21] = tested on: SK-MEL-28 melanoma
[22] = tested on: LOX IMVI melanoma
[23] = tested on: OVCAR-4 ovarian
[24] = tested on: T-47D breast
[25] = tested on: RXF 393 renal
[26] = tested on: SN12C renal
[27] = tested on: MDA-MB-435 melanoma
[28] = tested on: CAKI-1 renal
[29] = tested on: NCI/ADR-RES ovarian
[30] = tested on: TK-10 renal
[31] = tested on: HCT-116 colon
[32] = tested on: BT-549 breast
[33] = tested on: RPMI-8226 leukemia
[34] = tested on: MOLT-4 leukemia
[35] = tested on: SF-268 CNS
[36] = tested on: UO-31 renal
[37] = tested on: MALME-3M melanoma
[38] = tested on: HT29 colon
[39] = tested on: EKVX NSCLC
[40] = tested on: NCI-H460 NSCLC
[41] = tested on: IGROV1 ovarian
[42] = tested on: NCI-H322M lung
[43] = tested on: HS 578T breast
[44] = tested on: SF-295 CNS
[45] = tested on: SNB-75 CNS
[46] = tested on: KM12 colon
[47] = tested on: MDA-MB-231 breast
[48] = tested on: SNB-19 CNS
[49] = tested on: 786-0 renal
[50] = tested on: MDA-MB-468 breast
[51] = tested on: CCRF-CEM leukemia
[52] = tested on: A549 NSCLC
[53] = tested on: ACHN renal
[54] = tested on: HOP-92 NSCLC
[55] = tested on: NCI-H23 lung
[56] = tested on: M14 melanoma
[57] = tested on: HCC-2998 colon
[58] = tested on: MCF7 breast
[59] = tested on: SR leukemia

SMILES: CC[C@H](CO)Nc1nc(NCc2ccccc2)c2ncn(C(C)C)c2n1
- GI50 [1]: 28.2 µM
- TGI [1]: > 100 µM
- GI50 [2]: 19.4 µM
- TGI [2]: 60.3 µM
- GI50 [3]: 18.3 µM
- TGI [3]: 50.6 µM
- GI50 [4]: 29.5 µM
- TGI [4]: 89.9 µM
- GI50 [5]: 27.2 µM
- TGI [5]: 82.1 µM
- GI50 [6]: 21.2 µM
- TGI [6]: 59.5 µM
- GI50 [7]: 13.7 µM
- TGI [7]: 27.3 µM
- GI50 [8]: 21.3 µM
- TGI [8]: 52.8 µM
- GI50 [9]: 14.8 µM
- TGI [9]: 28.1 µM
- GI50 [10]: 22.4 µM
- TGI [10]: 68.3 µM
- GI50 [11]: 21.8 µM
- TGI [11]: 62.2 µM
- GI50 [12]: 24.8 µM
- TGI [12]: > 100 µM
- GI50 [13]: 36.7 µM
- TGI [13]: 63.6 µM
- GI50 [14]: 36.5 µM
- TGI [14]: > 100 µM
- GI50 [15]: 17.2 µM
- TGI [15]: 43.9 µM
- GI50 [16]: 21 µM
- TGI [16]: 56.1 µM
- GI50 [17]: 15.4 µM
- TGI [17]: 31.8 µM
- GI50 [18]: 36.1 µM
- TGI [18]: > 100 µM
- GI50 [19]: 19.1 µM
- TGI [19]: 40.3 µM
- GI50 [20]: 20.9 µM
- TGI [20]: 56.3 µM
- GI50 [21]: 16.3 µM
- TGI [21]: 36.4 µM
- GI50 [22]: 19.3 µM
- TGI [22]: 37.5 µM
- GI50 [23]: 32 µM
- TGI [23]: > 100 µM
- GI50 [24]: 24.9 µM
- TGI [24]: 76.1 µM
- GI50 [25]: 14.1 µM
- TGI [25]: 28.2 µM
- GI50 [26]: 21.1 µM
- TGI [26]: 52.1 µM
- GI50 [27]: 23.2 µM
- TGI [27]: 64.6 µM
- GI50 [28]: 24 µM
- TGI [28]: 77.4 µM
- GI50 [29]: 22.3 µM
- TGI [29]: 75.2 µM
- GI50 [30]: 25 µM
- TGI [30]: 83.6 µM
- GI50 [31]: 16.4 µM
- TGI [31]: 35.3 µM
- GI50 [32]: 15.9 µM
- TGI [32]: 33.6 µM
- GI50 [33]: 17 µM
- TGI [33]: 31.6 µM
- GI50 [34]: 17.3 µM
- TGI [34]: 32.1 µM
- GI50 [35]: 15.3 µM
- TGI [35]: 35.6 µM
- GI50 [36]: 20.9 µM
- TGI [36]: 45 µM
- GI50 [37]: 24.8 µM
- TGI [37]: 57.8 µM
- GI50 [38]: 20.1 µM
- TGI [38]: 47.2 µM
- GI50 [39]: 23 µM
- TGI [39]: 59.6 µM
- GI50 [40]: 16.2 µM
- TGI [40]: 31.8 µM
- GI50 [41]: 26.5 µM
- TGI [41]: 95.8 µM
- GI50 [42]: 19.1 µM
- TGI [42]: 49.9 µM
- GI50 [43]: 15.2 µM
- TGI [43]: 32.3 µM
- GI50 [44]: 25.2 µM
- TGI [44]: 78.6 µM
- GI50 [45]: 16.6 µM
- TGI [45]: 35.4 µM
- GI50 [46]: 18.8 µM
- TGI [46]: 43.6 µM
- GI50 [47]: 22.4 µM
- TGI [47]: 62.9 µM
- GI50 [48]: 26.8 µM
- TGI [48]: > 100 µM
- GI50 [49]: 22.7 µM
- TGI [49]: 61.5 µM
- GI50 [50]: 19.8 µM
- TGI [50]: 37.9 µM
- GI50 [51]: 16.8 µM
- TGI [51]: 33.3 µM
- GI50 [52]: 27.5 µM
- TGI [52]: > 100 µM

SMILES: Cc1[nH]c2ccc(F)cc2c1-c1nc2c3cccnc3c3ncccc3c2[nH]1
- GI50 [1]: 0.0637 µM
- TGI [1]: 0.71 µM
- GI50 [2]: 0.245 µM
- TGI [2]: 29.9 µM
- GI50 [3]: 0.244 µM
- TGI [3]: 0.852 µM
- GI50 [4]: 0.336 µM
- TGI [4]: > 100 µM
- GI50 [5]: 0.205 µM
- TGI [5]: > 100 µM
- GI50 [53]: 0.241 µM
- TGI [53]: 0.686 µM
- GI50 [6]: 0.227 µM
- TGI [6]: 0.603 µM
- GI50 [7]: 0.204 µM
- TGI [7]: 0.587 µM
- GI50 [8]: 0.0353 µM
- TGI [8]: 0.141 µM
- GI50 [9]: 0.0453 µM
- TGI [9]: 0.176 µM
- GI50 [10]: 0.147 µM
- TGI [10]: 0.683 µM
- GI50 [11]: 0.129 µM
- TGI [11]: 0.345 µM
- GI50 [12]: 0.298 µM
- TGI [12]: 17.6 µM
- GI50 [13]: 0.353 µM
- TGI [13]: 0.934 µM
- GI50 [14]: 0.0449 µM
- TGI [14]: 9.45 µM
- GI50 [15]: 0.0278 µM
- TGI [15]: 22.2 µM
- GI50 [54]: 0.194 µM
- TGI [54]: 0.742 µM
- GI50 [55]: 0.233 µM
- TGI [55]: 0.704 µM
- GI50 [16]: 0.0699 µM
- TGI [16]: > 100 µM
- GI50 [17]: 0.0252 µM
- TGI [17]: 0.119 µM
- GI50 [18]: 0.217 µM
- TGI [18]: > 100 µM
- GI50 [19]: 0.125 µM
- TGI [19]: 0.404 µM
- GI50 [20]: 0.0607 µM
- TGI [20]: 0.413 µM
- GI50 [21]: 0.272 µM
- TGI [21]: > 100 µM
- GI50 [22]: 0.0625 µM
- TGI [22]: 0.231 µM
- GI50 [23]: 0.096 µM
- TGI [23]: > 100 µM
- GI50 [25]: 0.0314 µM
- TGI [25]: 0.192 µM
- GI50 [26]: 0.161 µM
- TGI [26]: 0.397 µM
- GI50 [27]: 0.306 µM
- TGI [27]: > 100 µM
- GI50 [28]: 0.218 µM
- TGI [28]: 0.572 µM
- GI50 [30]: 0.45 µM
- TGI [30]: 18.8 µM
- GI50 [31]: 0.0521 µM
- TGI [31]: 0.654 µM
- GI50 [32]: 0.0418 µM
- TGI [32]: 0.254 µM
- GI50 [33]: 3.11 µM
- TGI [33]: 15 µM
- GI50 [34]: 0.0374 µM
- TGI [34]: 0.151 µM
- GI50 [56]: 0.192 µM
- TGI [56]: 0.472 µM
- GI50 [35]: 0.025 µM
- TGI [35]: 0.0831 µM
- GI50 [57]: 0.0242 µM
- TGI [57]: > 100 µM
- GI50 [36]: 0.319 µM
- TGI [36]: 7.71 µM
- GI50 [37]: 0.195 µM
- TGI [37]: 0.743 µM
- GI50 [38]: 0.338 µM
- TGI [38]: > 100 µM
- GI50 [39]: 0.122 µM
- TGI [39]: 14.2 µM
- GI50 [40]: 0.367 µM
- TGI [40]: 4.26 µM
- GI50 [41]: 0.182 µM
- TGI [41]: 32.9 µM
- GI50 [42]: 0.125 µM
- TGI [42]: 28.5 µM
- GI50 [43]: 0.318 µM
- TGI [43]: 12.1 µM
- GI50 [44]: 0.303 µM
- TGI [44]: 12 µM
- GI50 [45]: 0.23 µM
- TGI [45]: 0.759 µM
- GI50 [46]: 0.266 µM
- TGI [46]: > 100 µM
- GI50 [47]: 0.228 µM
- TGI [47]: 2.93 µM
- GI50 [58]: 0.298 µM
- TGI [58]: 40.3 µM
- GI50 [48]: 0.241 µM
- TGI [48]: 0.883 µM
- GI50 [49]: 0.176 µM
- TGI [49]: 0.586 µM
- GI50 [50]: 0.0745 µM
- TGI [50]: 0.214 µM
- GI50 [51]: 0.0376 µM
- TGI [51]: 0.136 µM
- GI50 [52]: 0.421 µM
- TGI [52]: > 100 µM
- GI50 [59]: 0.0192 µM
- TGI [59]: 0.0339 µM
